# Earlier results in patent US20050031690A1, “Stabilized prostaglandin formulation” (Pharmacia Corporation, priority 2003, published 2005).
# Details: solution state
smiles,measurement,value
CCCCC[C@H](O)/C=C/[C@H]1[C@H](O)CC(=O)[C@@H]1CCCCCCC(=O)O [prostaglandin E1],pH region of relative stability,3-4
